The subject of this assay is human cervical tumor cell line HeLa (ATCC CCL-2). The assay can be described thus: SAC-Formation - Nocodazole-Induced Assay. The format is cell-based. The following applies: HeLa cells, nocodazole 0.1 μg/ml together with test compound, 24 h, decrease of mitotic cells (phospho-histone H3 Ser10). Put shortly: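 HeLa cells, plated overnight, were treated 24 h at 37 °C with nocodazole (0.1 μg/ml final) plus test compound (0.005–20 μM, 0.5% DMSO) added at the same time. After fixation, anti-phospho-histone H3 Ser10 and Hoechst staining gave the mitotic cell fraction by imaging. Values came from four-parameter Hill fits.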

Consider `Cc1nsc(Nc2cnc(C(F)(F)F)cn2)c1C(=O)Nc1ccc(O[C@@H]2CCN(CC(F)(F)F)C2)nc1` [Example 421, 3-Methyl-N-(6-{[(3R)-1-(2,2,2-trifluoroethyl)pyrrolidin-3-yl]oxy}pyridin-3-yl)-5-{[5-(trifluoromethyl)pyrazin-2-yl]amino}-1,2-thiazole-4-carboxamide], for which the IC50 amounted to 340 nM.
For `Cc1nsc(Nc2cnc3ccccc3n2)c1C(=O)Nc1cccc(C(=O)N[C@H](C(=O)O)[C@@H](C)O)c1` [Example 105, N-[3-({[3-methyl-5-(quinoxalin-2-ylamino)-1,2-thiazol-4-yl]carbonyl}amino)-benzoyl]threonine], the 50% inhibitory concentration (IC50) (Homo sapiens, HeLa) stood at 20000 nM.
Same read-out and setting: the result for `CCCCN1CC[C@H](Oc2ccc(NC(=O)c3c(C)nsc3Nc3cnc(C(F)(F)F)cn3)cn2)[C@H](F)C1` [Example 148, N-(6-{[(3R,4S)-1-butyl-3-fluoropiperidin-4-yl]oxy}pyridin-3-yl)-3-methyl-5-{[5-(trifluoromethyl)pyrazin-2-yl]amino}-1,2-thiazole-4-carboxamide] reads 210 nM; that for `CC(=O)N(C)CCOc1ccc(NC(=O)c2c(C)nsc2Nc2nc3c(C(F)(F)F)cccc3s2)cn1` [Example 112, N-(6-{2-[Acetyl(methyl)amino]-ethoxy}pyridin-3-yl)-3-methyl-5-{[4-(trifluoromethyl)-1,3-benzothiazol-2-yl]amino}-1,2-thiazole-4-carboxamide], 230 nM.
Still for that read-out and setting: the result for `Cc1nsc(Nc2cnc3ccccc3n2)c1C(=O)Nc1cccc(-c2nc(C(C)(C)C)no2)c1` [Example 108, N-[3-(3-tert-Butyl-1,2,4-oxadiazol-5-yl)phenyl]-3-methyl-5-(quinoxalin-2-ylamino)-1,2-thiazole-4-carboxamide] reads 19 nM; that for `Cc1nsc(Nc2cnc3ccccc3n2)c1C(=O)Nc1cccc(C(=O)NCC(=O)O)c1` [Example 99, N-[3-({[3-Methyl-5-(quinoxalin-2-ylamino)-1,2-thiazol-4-yl]carbonyl}amino)benzoy]-glycine], 1100 nM.
For `Cc1nsc(Nc2cnc(C(F)(F)F)cn2)c1C(=O)Nc1ccc(O[C@@H]2CCN(CCC(F)(F)F)C[C@@H]2F)nc1` [Example 139, N-(6-{[(3S,4R)-3-fluoro-1-(3,3,3-trifluoropropyl)piperidin-4-yl]oxy}pyridin-3-yl)-3-methyl-5-{[5-(trifluoromethyl)pyrazin-2-yl]amino}-1,2-thiazole-4-carboxamide], the 50% inhibitory concentration (IC50) (Homo sapiens, HeLa) was found to be 16 nM.
In the case of `Cc1nsc(Nc2cnc(C(F)(F)F)cn2)c1C(=O)Nc1ccc(OC[C@@H]2CCCN(CCC(F)(F)F)C2)nc1` [Example 422, 3-Methyl-5-{[5-(trifluoromethyl)pyrazin-2-yl]amino}-N-(6-{[(3R)-1-(3,3,3-trifluoropropyl)piperidin-3-yl]methoxy}pyridin-3-yl)-1,2-thiazole-4-carboxamide], the half-inhibitory concentration (IC50) was found to be 40 nM.
Consider `Cc1nsc(Nc2cc(C#N)ccn2)c1C(=O)Nc1cccc(C(=O)N2CCCC2)c1` [Example 114, 5-[(4-Cyanopyridin-2-yl)amino]-3-methyl-N-[3-(pyrrolidin-1-ylcarbonyl)phenyl]-1,2-thiazole-4-carboxamide], for which, for the setting “Homo sapiens, HeLa”, the IC50 is 210 nM.
On the same count and under the same terms, the result for `Cc1nsc(Nc2cnc3ccccc3n2)c1C(=O)Nc1cccc(-c2nnc(C(C)(C)C)o2)c1` [Example 107, N-[3-(5-tert-Butyl-1,3,4-oxadiazol-2-yl)phenyl]-3-methyl-5-(quinoxalin-2-ylamino)-1,2-thiazole-4-carboxamide] reads 11 nM.
On to `Cc1nsc(Nc2cncc(C(F)(F)F)n2)c1C(=O)Nc1ccc(C(=O)NC2CCN(CC(F)(F)F)CC2)cc1` [Example 167, 3-methyl-N-(4-{[1-(2,2,2-trifluoroethyl)piperidin-4-yl]carbamoyl}phenyl)-5-{[6-(trifluoromethyl)pyrazin-2-yl]amino}-1,2-thiazole-4-carboxamide], for which, under “Homo sapiens, HeLa”, the IC50 was found to be 91 nM.
On to `Cc1nsc(Nc2cnc(C(F)(F)F)cn2)c1C(=O)Nc1ccc(O[C@@H]2CCN(CCC(F)(F)F)C2)nc1` [Example 423, 3-Methyl-5-{[5-(trifluoromethyl)pyrazin-2-yl]amino}-N-(6-{[(3R)-1-(3,3,3-trifluoropropyl)pyrrolidin-3-yl]oxy}pyridin-3-yl)-1,2-thiazole-4-carboxamide], for which the concentration for half-maximal inhibition (IC50) came to 47 nM.
With `Cc1nsc(Nc2cnc(C(F)(F)F)cn2)c1C(=O)Nc1ccc(OCC2CCN(C(=O)OC(C)(C)C)C2)nc1` (stereo not drawn) [Example 109, tert-Butyl 3-{[(5-{[(3-methyl-5-{[5-(trifluoromethyl)pyrazin-2-yl]amino}-1,2-thiazol-4-yl)carbonyl]amino}pyridin-2-yl)oxy]methyl}pyrrolidine-1-carboxylate], the IC50 (Homo sapiens, HeLa) turned out to be 7 nM.
Same read-out and setting: the result for `Cc1nsc(Nc2cnc3ccccc3n2)c1C(=O)Nc1cccc(C(=O)N2CCCC2)c1` [Example 113, 3-Methyl-N-[3-(pyrrolidin-1-ylcarbonyl)phenyl]-5-(quinoxalin-2-ylamino)-1,2-thiazole-4-carboxamide] reads 210 nM; that for `CC(=O)N1CCC(Oc2ccc(NC(=O)c3c(C)nsc3Nc3cnc(C(F)(F)F)cn3)cn2)CC1` [Example 11, N-{6-[(1-Acetylpiperidin-4-yl)oxy]pyridin-3-yl}-3-methyl-5-{[5-(trifluoromethyl)-pyrazin-2-yl]amino}-1,2-thiazole-4-carboxamide], 1000 nM.
In the case of `Cc1nsc(Nc2ccc(C#N)cn2)c1C(=O)Nc1ccc(NC2CCCN(C(=O)OC(C)(C)C)C2)nc1` (stereo not drawn) [Example 171, tert-butyt 3-({5-[({5-[(5-cyanopyridin-2-yl)amino]-3-methyl-1,2-thiazol-4-yl}carbonyl)amino]pyridin-2-yl}amino)piperidine-1-carboxylate], where the note is “Homo sapiens, HeLa”, the IC50 is 71 nM.
Still for that read-out and setting: the value for `Cc1nsc(Nc2cncc(C(F)(F)F)n2)c1C(=O)Nc1ccc(OCC2CCCN(C(=O)OC(C)(C)C)C2)nc1` (stereo not drawn) [Example 166, tert-butyl 3-{[(5-{[(3-methyl-5-{[6-(trifluoromethyl)pyrazin-2-yl]amino}-1,2-thiazol-4-yl)carbonyl]amino}pyridin-2-yl)oxy]methyl}piperidine-1-carboxylate] was 52 nM; that for `Cc1nsc(Nc2cnc3ccccc3n2)c1C(=O)Nc1ccc(C(=O)NC2CN(C(=O)OC(C)(C)C)CC(F)(F)C2)cc1` (stereo not drawn) [Example 158, tert-butyl 3,3-difluoro-5-{[4-({[3-methyl-5-(quinoxalin-2-ylamino)-1,2-thiazol-4-yl]carbonyl}amino)benzoyl]amino} piperidine-1-carboxylate] was 240 nM.
Same read-out and setting: the value for `CC(=O)Nc1cc(NC(=O)c2c(C)nsc2Nc2ccc(C#N)cn2)ccc1F` [Example 152, N-(3-acetamido-4-fluorophenyl)-5-[(5-cyanopyridin-2-yl)amino]-3-methyl-1,2-thiazole-4-carboxamide] was 8400 nM; that for `Cc1nsc(Nc2cnc(C(F)(F)F)cn2)c1C(=O)Nc1ccc(OC2CCNCC2)nc1` [Example 6, 3-Methyl-N-[6-(piperidin-4-yloxy)pyridin-3-yl]-5-{[5-(trifluoromethyl)pyrazin-2-yl]amino}-1,2-thiazole-4-carboxamide] was 14000 nM; that for `Cc1nsc(Nc2cnc(C(F)(F)F)cn2)c1C(=O)Nc1ccc(OC2CCN(CCF)CC2)nc1` [Example 7, N-(6-{[1-(2-Fluoroethyl)piperidin-4-yl]oxy}pyridin-3-yl)-3-methyl-5-{[5-(trifluoromethyl)pyrazin-2-yl]amino}-1,2-thiazole-4-carboxamide] was 600 nM.

The values above are taken from patent publication US20170334899A1, “AMINO-SUBSTITUTED ISOTHIAZOLES” (Bayer Pharma Aktiengesellschaft, priority 2014, published 2017).
